Test results from PubChem BioAssay (NCI).
Several values for one entry are separate records, joined by “and”; a condition that tells them apart may be missing. Equal values may be shown once.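 Grown in 96-well plates, cells were treated for 48 hours with each compound at five concentrations. Insufficient inhibition: endpoint recorded as highest concentration tested. Abbreviation: GI50, concentration required for 50% inhibition of growth. TGI: total growth inhibition.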

Assays:
Experiment in all cases: NCI-60 cell line screen, 48 h
LOX IMVI melanoma = system: LOX IMVI melanoma
OVCAR-5 ovarian = system: OVCAR-5 ovarian
HT29 colon = system: HT29 colon
HOP-62 NSCLC = system: HOP-62 NSCLC
SR leukemia = system: SR leukemia
CAKI-1 renal = system: CAKI-1 renal
HCT-116 colon = system: HCT-116 colon
HOP-18 NSCLC = system: HOP-18 NSCLC
U251 CNS = system: U251 CNS
SW-620 colon = system: SW-620 colon
PC-3 prostate = system: PC-3 prostate
T-47D breast = system: T-47D breast
DU-145 prostate = system: DU-145 prostate
MDA-MB-231 breast = system: MDA-MB-231 breast

CCN(CC)CCCC(C)Nc1ccnc2ccc3nn(C)nc3c12 (stereo unspecified)
TGI (LOX IMVI melanoma): 41.1 µM | TGI (OVCAR-5 ovarian): > 100 µM | TGI (HT29 colon): > 100 µM | TGI (HOP-62 NSCLC): > 100 µM | TGI (SR leukemia): > 100 µM | TGI (CAKI-1 renal): > 100 µM | TGI (HCT-116 colon): > 100 µM | TGI (HOP-18 NSCLC): > 100 µM | TGI (U251 CNS): > 100 µM | TGI (SW-620 colon): 75.7 µM

c1ccc(C2=NOC3(c4ccccc4)SC4CCCCC4CN23)cc1 (stereo unspecified)
TGI (LOX IMVI melanoma): 34 µM | TGI (OVCAR-5 ovarian): > 100 µM | TGI (HT29 colon): > 100 µM | TGI (HOP-62 NSCLC): > 100 µM | TGI (SR leukemia): > 100 µM | TGI (CAKI-1 renal): 63.8 µM | TGI (HCT-116 colon): 50.4 µM | TGI (HOP-18 NSCLC): > 100 µM | TGI (U251 CNS): 37.6 µM | TGI (SW-620 colon): > 100 µM

COc1ccc(C2Oc3cc(OC)c(O)c(C)c3[C@H]2C)cc1 (stereo partly specified)
TGI (LOX IMVI melanoma): > 100 µM | TGI (OVCAR-5 ovarian): > 100 µM | TGI (HT29 colon): > 100 µM | TGI (HOP-62 NSCLC): > 100 µM | TGI (CAKI-1 renal): > 100 µM | TGI (HCT-116 colon): > 100 µM | TGI (HOP-18 NSCLC): > 100 µM | TGI (U251 CNS): > 100 µM | TGI (SW-620 colon): > 100 µM

NC(=O)c1coc(C2OC(CO)C(O)C2O)n1 (stereo unspecified)
TGI (LOX IMVI melanoma): > 100 µM | TGI (OVCAR-5 ovarian): > 100 µM | TGI (HT29 colon): > 100 µM | TGI (HOP-62 NSCLC): > 100 µM | TGI (SR leukemia): > 100 µM | TGI (HCT-116 colon): > 100 µM | TGI (HOP-18 NSCLC): > 100 µM | TGI (U251 CNS): > 100 µM | TGI (SW-620 colon): > 100 µM

COC1C(O)C(C)OC(OC2C(Oc3cccc4c(O)c5c(=O)oc6ccc(C)c7c(=O)oc(c34)c5c67)OC(C)C(O)C2O)C1O (stereo unspecified)
TGI (PC-3 prostate): 17.8 µM | GI50 (LOX IMVI melanoma): 0.688 µM | TGI (LOX IMVI melanoma): 7.55 µM and 10.5 µM | GI50 (OVCAR-5 ovarian): 6.91 µM | TGI (OVCAR-5 ovarian): 30.8 µM and 15.6 µM | TGI (T-47D breast): 7.66 µM | GI50 (HT29 colon): 1.94 µM | TGI (HT29 colon): 13.8 µM | GI50 (HOP-62 NSCLC): 1.01 µM | TGI (HOP-62 NSCLC): 6.38 µM and 5.29 µM | TGI (DU-145 prostate): 53.6 µM | TGI (SR leukemia): 6.47 µM | TGI (MDA-MB-231 breast): 8.67 µM | TGI (HCT-116 colon): 3.4 µM and 5.71 µM | TGI (HOP-18 NSCLC): 8.35 µM | GI50 (U251 CNS): 0.543 µM | TGI (U251 CNS): 11.9 µM | GI50 (SW-620 colon): 1.28 µM | TGI (SW-620 colon): 63.8 µM and 20.5 µM

Cc1ccc2c(n1)C(=O)C=CC2=O
TGI (PC-3 prostate): 31.9 µM | TGI (LOX IMVI melanoma): 12.6 µM | TGI (OVCAR-5 ovarian): 34.4 µM | TGI (T-47D breast): 4.74 µM | TGI (HT29 colon): 38 µM | TGI (HOP-62 NSCLC): > 58.3 µM | TGI (DU-145 prostate): 30.7 µM | TGI (SR leukemia): > 100 µM | TGI (MDA-MB-231 breast): 19.5 µM | TGI (CAKI-1 renal): 4.54 µM | TGI (HCT-116 colon): 4.12 µM | TGI (U251 CNS): 40.6 µM | TGI (SW-620 colon): 8.76 µM

CN(CCO)c1nc(N)cc(=O)[nH]1
TGI (LOX IMVI melanoma): > 100 µM | TGI (OVCAR-5 ovarian): > 100 µM | TGI (HT29 colon): > 100 µM | TGI (HOP-62 NSCLC): > 100 µM | TGI (SR leukemia): > 100 µM | TGI (CAKI-1 renal): > 100 µM | TGI (HCT-116 colon): > 100 µM | TGI (HOP-18 NSCLC): > 100 µM | TGI (U251 CNS): > 100 µM | TGI (SW-620 colon): > 100 µM

COc1cc(C(=O)O[C@@H]2[C@@H](OC(=O)c3cc(OC)c(OC)c(OC)c3)[C@@H](OC)O[C@@H]3CO[C@@H](c4ccccc4)O[C@@H]23)cc(OC)c1OC
TGI (PC-3 prostate): > 100 µM | TGI (LOX IMVI melanoma): > 100 µM | TGI (OVCAR-5 ovarian): > 100 µM | TGI (T-47D breast): > 100 µM | TGI (HT29 colon): > 100 µM | TGI (HOP-62 NSCLC): > 100 µM | TGI (DU-145 prostate): > 100 µM | TGI (SR leukemia): > 100 µM | TGI (MDA-MB-231 breast): > 100 µM | TGI (CAKI-1 renal): > 100 µM | TGI (HCT-116 colon): > 100 µM | TGI (U251 CNS): > 100 µM | TGI (SW-620 colon): > 100 µM

COc1ccc2c(c1)/C(=C\c1c(C)nc3sc(C)cn13)C(=O)N2
TGI (PC-3 prostate): > 100 µM | TGI (LOX IMVI melanoma): 61.2 µM | TGI (OVCAR-5 ovarian): 74.4 µM | TGI (T-47D breast): > 100 µM | TGI (HT29 colon): 7.83 µM | TGI (HOP-62 NSCLC): > 100 µM | TGI (DU-145 prostate): > 46.1 µM | TGI (SR leukemia): > 75.6 µM | TGI (MDA-MB-231 breast): 73.6 µM | TGI (CAKI-1 renal): > 100 µM | TGI (HCT-116 colon): 25 µM | TGI (U251 CNS): 7.2 µM | TGI (SW-620 colon): > 100 µM

O=C1NC(N2CCCCC2)=N/C1=C\c1cccs1
TGI (PC-3 prostate): > 100 µM | TGI (LOX IMVI melanoma): > 100 µM | TGI (OVCAR-5 ovarian): > 100 µM | TGI (T-47D breast): > 100 µM | TGI (HT29 colon): > 100 µM | TGI (HOP-62 NSCLC): > 100 µM | TGI (DU-145 prostate): > 100 µM | TGI (SR leukemia): > 100 µM | TGI (MDA-MB-231 breast): > 100 µM | TGI (CAKI-1 renal): > 100 µM | TGI (HCT-116 colon): > 100 µM | TGI (U251 CNS): > 100 µM | TGI (SW-620 colon): > 100 µM

Cc1nn(C(=O)c2ccncc2)c2c1C(c1ccccc1)SC(N)=N2 (stereo unspecified)
TGI (PC-3 prostate): > 10 µM | TGI (LOX IMVI melanoma): > 10 µM | TGI (OVCAR-5 ovarian): > 10 µM | TGI (T-47D breast): > 10 µM | TGI (HT29 colon): > 10 µM | TGI (HOP-62 NSCLC): > 10 µM | TGI (DU-145 prostate): > 10 µM | TGI (SR leukemia): > 10 µM | TGI (MDA-MB-231 breast): > 10 µM | TGI (CAKI-1 renal): > 10 µM | TGI (HCT-116 colon): > 10 µM | TGI (U251 CNS): > 10 µM | TGI (SW-620 colon): > 10 µM

O=C(Cc1csc(-c2nc(CC(=O)NNc3ccccc3)cs2)n1)NNc1ccccc1
TGI (LOX IMVI melanoma): 43.7 µM | TGI (OVCAR-5 ovarian): > 100 µM | TGI (HT29 colon): > 100 µM | TGI (HOP-62 NSCLC): > 100 µM | TGI (SR leukemia): 53.6 µM | TGI (CAKI-1 renal): > 100 µM | TGI (HCT-116 colon): > 100 µM | TGI (HOP-18 NSCLC): > 100 µM | TGI (U251 CNS): > 100 µM

CCN(CC)CCCn1c(=O)c2ccccc2n2c3c(=O)n(C)c(=O)n(C)c3nc12
TGI (PC-3 prostate): 23 µM | TGI (LOX IMVI melanoma): 15.4 µM | TGI (OVCAR-5 ovarian): 32.9 µM | TGI (T-47D breast): 49.8 µM | TGI (HT29 colon): 24 µM | TGI (HOP-62 NSCLC): 15.1 µM | TGI (DU-145 prostate): 10.6 µM | TGI (SR leukemia): 3.37 µM | TGI (MDA-MB-231 breast): 30.1 µM | TGI (CAKI-1 renal): 15.1 µM | TGI (HCT-116 colon): 21.6 µM | TGI (U251 CNS): 23.3 µM | TGI (SW-620 colon): 29.1 µM

Clc1ccccc1C1=NN(c2ccccc2)C2c3ccccc3OCC12 (stereo unspecified)
TGI (LOX IMVI melanoma): > 100 µM | TGI (OVCAR-5 ovarian): > 100 µM | TGI (HT29 colon): > 100 µM | TGI (HOP-62 NSCLC): > 100 µM | TGI (HCT-116 colon): > 100 µM | TGI (HOP-18 NSCLC): > 100 µM | TGI (U251 CNS): > 100 µM | TGI (SW-620 colon): > 100 µM

Oc1ccccc1C=Nc1ccc(-c2nc3ccccc3[nH]2)cc1
TGI (PC-3 prostate): > 100 µM | TGI (LOX IMVI melanoma): > 100 µM | TGI (OVCAR-5 ovarian): > 100 µM | TGI (T-47D breast): 66.5 µM | TGI (HT29 colon): > 100 µM | TGI (HOP-62 NSCLC): > 100 µM | TGI (DU-145 prostate): > 100 µM | TGI (SR leukemia): > 100 µM | TGI (MDA-MB-231 breast): > 100 µM | TGI (CAKI-1 renal): > 100 µM | TGI (HCT-116 colon): > 100 µM | TGI (U251 CNS): > 100 µM | TGI (SW-620 colon): > 100 µM

CC1(C)CC23CC(C)(C)c4cccc(c42)OCc2ccc4ccc5ccc(nc5c4n2)COc2cccc1c23
TGI (PC-3 prostate): > 50 µM | TGI (LOX IMVI melanoma): > 50 µM | TGI (OVCAR-5 ovarian): > 50 µM | TGI (T-47D breast): > 50 µM | TGI (HT29 colon): > 50 µM | TGI (HOP-62 NSCLC): > 50 µM | TGI (DU-145 prostate): > 50 µM | TGI (SR leukemia): > 50 µM | TGI (MDA-MB-231 breast): > 50 µM | TGI (CAKI-1 renal): > 50 µM | TGI (HCT-116 colon): > 50 µM | TGI (U251 CNS): > 50 µM | TGI (SW-620 colon): > 50 µM

CCOC(=O)c1sc(N/N=C2\NC(=O)/C(=C/c3ccc([N+](=O)[O-])cc3)S2)nc1C
TGI (PC-3 prostate): 91.4 µM | TGI (LOX IMVI melanoma): 46.1 µM | TGI (OVCAR-5 ovarian): > 100 µM | TGI (T-47D breast): 45.4 µM | TGI (HT29 colon): 51 µM | TGI (HOP-62 NSCLC): 38 µM | TGI (DU-145 prostate): 47.4 µM | TGI (SR leukemia): 29.4 µM | TGI (MDA-MB-231 breast): 49.2 µM | TGI (CAKI-1 renal): 60.5 µM | TGI (HCT-116 colon): 36.7 µM | TGI (U251 CNS): > 100 µM | TGI (SW-620 colon): > 100 µM
